# According to US9549932B2, “2-(morpholin-4-yl)-1,7-naphthyridines” (BAYER PHARMA AKTIENGESELLSCHAFT, priority 2014, dated 2017):
# Target: full-length human ATR protein (Homo sapiens (Human), UniProt Q13535)
# Experiment: Binding assay ATR (TR-FRET tracer displacement)
# Conditions: tracer A, TR-FRET; read-out: ATR binding (tracer A) IC50
# Outline: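 Full-length human GST-ATR co-purified with ATRIP, pre-complexed 30 min at 22 °C with anti-GST-Tb antibody, then pre-bound with compound 10 min. Tracer A or B added (2 µl of 100 nM solution), 30 min at 22 °C.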
# Chain of full-length human ATR protein (Q13535 other isoform, or with tags, fused parts or gaps): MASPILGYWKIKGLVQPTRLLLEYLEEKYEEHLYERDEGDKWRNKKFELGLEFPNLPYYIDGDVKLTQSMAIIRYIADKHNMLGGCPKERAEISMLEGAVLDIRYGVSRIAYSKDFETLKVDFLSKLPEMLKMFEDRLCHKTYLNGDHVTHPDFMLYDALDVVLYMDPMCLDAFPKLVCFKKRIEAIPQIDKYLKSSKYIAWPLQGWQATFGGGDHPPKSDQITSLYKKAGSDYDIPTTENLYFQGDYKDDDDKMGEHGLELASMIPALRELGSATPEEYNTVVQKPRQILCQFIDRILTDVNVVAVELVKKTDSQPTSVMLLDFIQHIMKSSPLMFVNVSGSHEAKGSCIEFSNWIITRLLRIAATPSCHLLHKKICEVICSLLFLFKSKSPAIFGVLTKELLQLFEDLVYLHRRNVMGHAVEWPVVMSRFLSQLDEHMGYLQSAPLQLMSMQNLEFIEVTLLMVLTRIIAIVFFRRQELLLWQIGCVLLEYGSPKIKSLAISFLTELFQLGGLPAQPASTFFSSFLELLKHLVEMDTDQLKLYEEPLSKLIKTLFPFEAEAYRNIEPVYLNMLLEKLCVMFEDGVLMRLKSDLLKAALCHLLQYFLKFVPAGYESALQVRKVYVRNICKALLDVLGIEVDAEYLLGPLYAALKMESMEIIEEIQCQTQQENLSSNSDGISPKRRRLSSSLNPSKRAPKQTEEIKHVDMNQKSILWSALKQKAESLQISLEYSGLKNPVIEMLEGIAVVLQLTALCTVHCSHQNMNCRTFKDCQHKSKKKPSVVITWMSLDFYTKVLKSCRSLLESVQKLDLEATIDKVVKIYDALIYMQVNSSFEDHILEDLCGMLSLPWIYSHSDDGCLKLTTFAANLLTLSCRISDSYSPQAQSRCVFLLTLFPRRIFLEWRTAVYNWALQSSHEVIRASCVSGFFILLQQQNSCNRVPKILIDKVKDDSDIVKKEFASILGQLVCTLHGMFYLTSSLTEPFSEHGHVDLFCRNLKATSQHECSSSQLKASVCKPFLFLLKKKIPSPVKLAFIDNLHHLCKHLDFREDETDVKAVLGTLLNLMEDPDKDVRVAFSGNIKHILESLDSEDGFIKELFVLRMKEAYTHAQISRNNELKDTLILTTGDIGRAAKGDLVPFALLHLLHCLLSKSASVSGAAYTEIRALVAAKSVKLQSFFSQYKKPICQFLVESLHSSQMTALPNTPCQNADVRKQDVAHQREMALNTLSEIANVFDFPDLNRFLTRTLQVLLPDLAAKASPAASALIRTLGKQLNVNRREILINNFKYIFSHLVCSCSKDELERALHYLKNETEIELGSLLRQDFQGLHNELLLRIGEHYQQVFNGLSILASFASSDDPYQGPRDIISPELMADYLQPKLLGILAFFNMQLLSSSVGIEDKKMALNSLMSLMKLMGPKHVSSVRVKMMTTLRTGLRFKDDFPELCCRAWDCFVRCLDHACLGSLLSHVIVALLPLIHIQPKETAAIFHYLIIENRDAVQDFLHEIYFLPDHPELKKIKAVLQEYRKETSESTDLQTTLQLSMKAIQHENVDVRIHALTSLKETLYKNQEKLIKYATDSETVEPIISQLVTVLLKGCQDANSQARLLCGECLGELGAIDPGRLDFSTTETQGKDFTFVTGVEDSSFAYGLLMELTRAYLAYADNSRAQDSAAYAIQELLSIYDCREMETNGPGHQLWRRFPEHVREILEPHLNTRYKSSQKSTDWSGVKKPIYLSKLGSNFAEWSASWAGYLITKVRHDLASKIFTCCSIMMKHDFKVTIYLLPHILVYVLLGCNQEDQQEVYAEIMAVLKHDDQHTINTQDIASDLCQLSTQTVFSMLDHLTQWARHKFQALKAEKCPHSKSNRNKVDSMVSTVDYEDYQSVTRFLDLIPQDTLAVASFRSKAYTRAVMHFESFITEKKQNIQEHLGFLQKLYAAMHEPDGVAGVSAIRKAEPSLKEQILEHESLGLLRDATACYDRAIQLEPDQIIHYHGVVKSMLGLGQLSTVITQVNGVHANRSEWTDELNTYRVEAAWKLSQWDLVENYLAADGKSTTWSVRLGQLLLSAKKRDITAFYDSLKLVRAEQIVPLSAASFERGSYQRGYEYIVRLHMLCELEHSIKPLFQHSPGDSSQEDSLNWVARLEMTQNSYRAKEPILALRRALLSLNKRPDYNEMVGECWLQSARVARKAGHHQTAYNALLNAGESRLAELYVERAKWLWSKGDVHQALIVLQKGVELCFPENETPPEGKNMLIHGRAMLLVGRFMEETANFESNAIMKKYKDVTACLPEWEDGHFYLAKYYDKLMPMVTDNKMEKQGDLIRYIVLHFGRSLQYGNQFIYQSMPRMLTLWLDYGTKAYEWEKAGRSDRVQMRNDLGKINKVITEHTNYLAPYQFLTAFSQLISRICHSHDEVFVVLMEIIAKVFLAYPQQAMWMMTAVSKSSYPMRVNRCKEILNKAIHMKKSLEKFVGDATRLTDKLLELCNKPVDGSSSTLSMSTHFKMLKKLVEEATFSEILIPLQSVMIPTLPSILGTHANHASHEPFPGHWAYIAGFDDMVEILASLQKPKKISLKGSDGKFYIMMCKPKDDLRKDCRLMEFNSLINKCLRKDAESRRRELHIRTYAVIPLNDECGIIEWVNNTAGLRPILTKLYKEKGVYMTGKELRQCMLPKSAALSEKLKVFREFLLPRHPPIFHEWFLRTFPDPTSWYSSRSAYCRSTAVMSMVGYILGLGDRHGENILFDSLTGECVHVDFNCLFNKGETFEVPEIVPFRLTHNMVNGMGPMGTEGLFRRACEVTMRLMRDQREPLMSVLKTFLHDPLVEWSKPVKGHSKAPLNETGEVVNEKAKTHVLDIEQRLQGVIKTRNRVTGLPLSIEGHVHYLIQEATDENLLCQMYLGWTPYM
# Chain of full-length human ATR protein (Q8WXE1 other isoform, or with tags, fused parts or gaps partner): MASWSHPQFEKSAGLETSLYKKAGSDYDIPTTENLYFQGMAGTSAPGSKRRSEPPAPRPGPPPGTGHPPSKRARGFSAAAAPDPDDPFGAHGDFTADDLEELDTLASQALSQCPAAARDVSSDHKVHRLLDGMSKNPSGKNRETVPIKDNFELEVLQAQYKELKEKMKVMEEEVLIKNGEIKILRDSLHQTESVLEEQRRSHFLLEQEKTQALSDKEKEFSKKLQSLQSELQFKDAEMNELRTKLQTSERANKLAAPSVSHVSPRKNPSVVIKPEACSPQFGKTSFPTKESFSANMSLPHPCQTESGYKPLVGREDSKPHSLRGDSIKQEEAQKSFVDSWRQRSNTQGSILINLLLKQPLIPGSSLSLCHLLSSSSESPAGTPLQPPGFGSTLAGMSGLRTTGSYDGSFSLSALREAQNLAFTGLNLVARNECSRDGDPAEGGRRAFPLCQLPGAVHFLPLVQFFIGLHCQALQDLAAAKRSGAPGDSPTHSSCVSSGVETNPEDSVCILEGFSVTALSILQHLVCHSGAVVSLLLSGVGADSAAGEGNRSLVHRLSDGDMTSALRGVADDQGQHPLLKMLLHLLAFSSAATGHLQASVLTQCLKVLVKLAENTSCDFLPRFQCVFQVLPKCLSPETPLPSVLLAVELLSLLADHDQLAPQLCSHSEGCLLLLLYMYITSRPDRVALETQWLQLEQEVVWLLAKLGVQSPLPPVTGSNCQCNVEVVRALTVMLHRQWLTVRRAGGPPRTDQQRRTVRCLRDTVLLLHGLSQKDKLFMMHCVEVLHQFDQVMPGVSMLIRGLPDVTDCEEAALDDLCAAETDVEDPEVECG
row,SMILES,IC50
1,"c1csc(-c2cc(N3CCOCC3)nc3c(-c4ccn[nH]4)nccc23)c1 [Example 371, 2-(morpholin-4-yl)-8-(1H-pyrazol-5-yl)-4-(thiophen-2-yl)-1,7-naphthyridine]",122 nM
2,"c1cc(-c2nccc3c(-c4ccsc4)cc(N4CCOCC4)nc23)[nH]n1 [Example 372, 2-(morpholin-4-yl)-8-(1H-pyrazol-5-yl)-4-(thiophen-3-yl)-1,7-naphthyridine]",134 nM
3,"Cc1ccsc1-c1cc(N2CCOCC2)nc2c(-c3ccn[nH]3)nccc12 [Example 373, 4-(3-methylthiophen-2-yl)-2-(morpholin-4-yl)-8-(1H-pyrazol-5-yl)-1,7-naphthyridine]",38.1 nM
4,"COc1ccncc1-c1cc(N2CCOCC2)nc2c(-c3ccn[nH]3)nccc12 [Example 375, 4-(4-methoxypyridin-3-yl)-2-(morpholin-4-yl)-8-(1H-pyrazol-5-yl)-1,7-naphthyridine]",894 nM
5,"Cc1ccc2c(c1)cc(-c1cc(N3CCOCC3)nc3c(-c4ccn[nH]4)nccc13)n2C(=O)OC(C)(C)C [Example 377, tert-butyl 5-methyl-2-[2-(morpholin-4-yl)-8-(1H-pyrazol-5-yl)-1,7-naphthyridin-4-yl]-1H-indole-1-carboxylate]",2990 nM
6,"Cc1noc(C)c1-c1cc(N2CCOCC2)nc2c(-c3ccn[nH]3)nccc12 [Example 379, 4-(3,5-dimethyl-1,2-oxazol-4-yl)-2-(morpholin-4-yl)-8-(1H-pyrazol-5-yl)-1,7-naphthyridine]",69.8 nM
7,"c1cnc2c(-c3cc(N4CCOCC4)nc4c(-c5ccn[nH]5)nccc34)cccc2c1 [Example 380, 2-(morpholin-4-yl)-8-(1H-pyrazol-5-yl)-4-(quinolin-8-yl)-1,7-naphthyridine]",1460 nM
8,"Cc1ccc(-c2cc(N3CCOCC3)nc3c(-c4ccn[nH]4)nccc23)s1 [Example 381, 4-(5-methylthiophen-2-yl)-2-(morpholin-4-yl)-8-(1H-pyrazol-5-yl)-1,7-naphthyridine]",121 nM
9,"CCOc1ccc(-c2cc(N3CCOCC3)nc3c(-c4ccn[nH]4)nccc23)cn1 [Example 382, 4-(6-ethoxypyridin-3-yl)-2-(morpholin-4-yl)-8-(1H-pyrazol-5-yl)-1,7-naphthyridine]",199 nM
10,"CCOc1ncccc1-c1cc(N2CCOCC2)nc2c(-c3ccn[nH]3)nccc12 [Example 383, 4-(2-ethoxypyridin-3-yl)-2-(morpholin-4-yl)-8-(1H-pyrazol-5-yl)-1,7-naphthyridine]",239 nM
11,"c1cnc2ccc(-c3cc(N4CCOCC4)nc4c(-c5ccn[nH]5)nccc34)cc2c1 [Example 384, 2-(morpholin-4-yl)-8-(1H-pyrazol-5-yl)-4-(quinolin-6-yl)-1,7-naphthyridine]",89.2 nM
12,"Nc1ccc(-c2cc(N3CCOCC3)nc3c(-c4ccn[nH]4)nccc23)cn1 [Example 386, 5-[2-(morpholin-4-yl)-8-(1H-pyrazol-5-yl)-1,7-naphthyridin-4-yl]pyridin-2-amine]",173 nM
13,"c1cc(-c2nccc3c(-c4cc[nH]n4)cc(N4CCOCC4)nc23)[nH]n1 [Example 387, 2-(morpholin-4-yl)-4-(1H-pyrazol-3-yl)-8-(1H-pyrazol-5-yl)-1,7-naphthyridine]",218 nM
14,"Cc1ccc(-c2cc(N3CCOCC3)nc3c(-c4ccn[nH]4)nccc23)cn1 [Example 388, 4-(6-methylpyridin-3-yl)-2-(morpholin-4-yl)-8-(1H-pyrazol-5-yl)-1,7-naphthyridine]",79.1 nM
15,"Cn1cccc1-c1cc(N2CCOCC2)nc2c(-c3ccn[nH]3)nccc12 [Example 389, 4-(1-methyl-1H-pyrrol-2-yl)-2-(morpholin-4-yl)-8-(1H-pyrazol-5-yl)-1,7-naphthyridine]",26.6 nM
16,"Oc1ccc(-c2cc(N3CCOCC3)nc3c(-c4ccn[nH]4)nccc23)cn1 [Example 390, 5-[2-(morpholin-4-yl)-8-(1H-pyrazol-5-yl)-1,7-naphthyridin-4-yl]pyridin-2-ol]",663 nM
17,"Fc1cncc(-c2cc(N3CCOCC3)nc3c(-c4ccn[nH]4)nccc23)c1 [Example 394, 4-(5-fluoropyridin-3-yl)-2-(morpholin-4-yl)-8-(1H-pyrazol-5-yl)-1,7-naphthyridine]",119 nM
18,"CSc1ncc(-c2cc(N3CCOCC3)nc3c(-c4ccn[nH]4)nccc23)cn1 [Example 395, 4-[2-(methylsulfanyl)pyrimidin-5-yl]-2-(morpholin-4-yl)-8-(1H-pyrazol-5-yl)-1,7-naphthyridine]",149 nM
19,"c1cc(-c2nccc3c(-c4cnc(NC5CC5)nc4)cc(N4CCOCC4)nc23)[nH]n1 [Example 396, N-cyclopropyl-5-[2-(morpholin-4-yl)-8-(1H-pyrazol-5-yl)-1,7-naphthyridin-4-yl]pyrimidin-2-amine]",174 nM
20,"c1cc(-c2cc(N3CCOCC3)nc3c(-c4ccn[nH]4)nccc23)c2ccncc2c1 [Example 397, 4-(isoquinolin-5-yl)-2-(morpholin-4-yl)-8-(1H-pyrazol-5-yl)-1,7-naphthyridine]",95.5 nM
21,"CNC(=O)c1ccc(-c2cc(N3CCOCC3)nc3c(-c4ccn[nH]4)nccc23)cn1 [Example 398, N-methyl-5-[2-(morpholin-4-yl)-8-(1H-pyrazol-5-yl)-1,7-naphthyridin-4-yl]pyridine-2-carboxamide]",120 nM
22,"CC(C)(C)NC(=O)c1cncc(-c2cc(N3CCOCC3)nc3c(-c4ccn[nH]4)nccc23)c1 [Example 399, N-tert-butyl-5-[2-(morpholin-4-yl)-8-(1H-pyrazol-5-yl)-1,7-naphthyridin-4-yl]pyridine-3-carboxamide]",618 nM
23,"CSc1cncc(-c2cc(N3CCOCC3)nc3c(-c4ccn[nH]4)nccc23)c1 [Example 400, 4-[5-(methylsulfanyl)pyridin-3-yl]-2-(morpholin-4-yl)-8-(1H-pyrazol-5-yl)-1,7-naphthyridine]",300 nM
24,"c1cc(-c2nccc3c(-c4ccnc5[nH]ccc45)cc(N4CCOCC4)nc23)[nH]n1 [Example 401, 2-(morpholin-4-yl)-8-(1H-pyrazol-5-yl)-4-(1H-pyrrolo[2,3-b]pyridin-4-yl)-1,7-naphthyridine]",87.5 nM
25,"Nc1ncccc1-c1cc(N2CCOCC2)nc2c(-c3ccn[nH]3)nccc12 [Example 402, 3-[2-(morpholin-4-yl)-8-(1H-pyrazol-5-yl)-1,7-naphthyridin-4-yl]pyridin-2-amine]",299 nM
26,"COC(=O)c1cc(-c2cc(N3CCOCC3)nc3c(-c4ccn[nH]4)nccc23)cs1 [Example 403, methyl 4-[2-(morpholin-4-yl)-8-(1H-pyrazol-5-yl)-1,7-naphthyridin-4-yl]thiophene-2-carboxylate]",194 nM
27,"COc1ncc(C(F)(F)F)cc1-c1cc(N2CCOCC2)nc2c(-c3ccn[nH]3)nccc12 [Example 404, 4-[2-methoxy-5-(trifluoromethyl)pyridin-3-yl]-2-(morpholin-4-yl)-8-(1H-pyrazol-5-yl)-1,7-naphthyridine]",424 nM
28,"CC(C)Oc1ncccc1-c1cc(N2CCOCC2)nc2c(-c3ccn[nH]3)nccc12 [Example 405, 2-(morpholin-4-yl)-4-[2-(propan-2-yloxy)pyridin-3-yl]-8-(1H-pyrazol-5-yl)-1,7-naphthyridine]",419 nM
29,"CC(C)(C)n1cc(-c2cc(N3CCOCC3)nc3c(-c4ccn[nH]4)nccc23)cn1 [Example 407, 4-(1-tert-butyl-1H-pyrazol-4-yl)-2-(morpholin-4-yl)-8-(1H-pyrazol-5-yl)-1,7-naphthyridine]",309 nM
